ChEMBL document CHEMBL5360555, “Structure-based discovery of novel α-aminoketone derivatives as dual p53-MDM2/MDMX inhibitors for the treatment of cancer” (Eur J Med Chem, 2023)
Active and inactive are the calls of the source. No cut-off for these calls is given here.

Assays:
[1] = molecular target: E3 ubiquitin-protein ligase Mdm2 (Homo sapiens, UniProt Q00987); assay: Binding affinity to MDM2 (1 to 118 residues) (unknown origin) assessed as inhibition constant incubated for 1 hr measured by fluorescence polarization assay
E3 ubiquitin-protein ligase Mdm2, sequence (Q00987 whole entry, the tested form may be a part): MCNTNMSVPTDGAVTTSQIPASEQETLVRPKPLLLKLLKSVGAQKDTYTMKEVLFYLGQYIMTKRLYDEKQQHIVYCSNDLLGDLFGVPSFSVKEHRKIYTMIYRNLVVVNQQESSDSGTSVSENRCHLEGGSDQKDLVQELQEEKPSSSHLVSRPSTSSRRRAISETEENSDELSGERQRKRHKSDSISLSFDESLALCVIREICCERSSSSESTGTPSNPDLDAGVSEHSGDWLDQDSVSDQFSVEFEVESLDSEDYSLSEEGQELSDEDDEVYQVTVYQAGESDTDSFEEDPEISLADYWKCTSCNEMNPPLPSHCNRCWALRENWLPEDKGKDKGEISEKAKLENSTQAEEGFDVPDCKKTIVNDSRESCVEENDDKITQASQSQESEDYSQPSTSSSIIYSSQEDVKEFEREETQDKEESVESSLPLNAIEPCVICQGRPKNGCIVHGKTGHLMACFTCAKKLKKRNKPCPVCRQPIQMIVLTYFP

HCT-116 [2] = assay: Antiproliferative activity against human HCT-116 cells overexpressing MDM2 assessed as cell growth inhibition incubated for 72 hrs by CCK-8 assay; assay type: functional, cell-based; details: HCT-116, 72 h
SH-SY5Y [3] = assay: Antiproliferative activity against human SH-SY5Y cells overexpressing MDMX assessed as cell growth inhibition incubated for 72 hrs by CCK-8 assay; assay type: functional, cell-based
Protein Mdm4 = molecular target: T1, Protein Mdm4 (Homo sapiens, UniProt O15151); assay: Binding affinity to MDMX (1 to 118 residues) (unknown origin) assessed as inhibition constant incubated for 1 hr measured by fluorescence polarization assay
T1 sequence (O15151 whole entry): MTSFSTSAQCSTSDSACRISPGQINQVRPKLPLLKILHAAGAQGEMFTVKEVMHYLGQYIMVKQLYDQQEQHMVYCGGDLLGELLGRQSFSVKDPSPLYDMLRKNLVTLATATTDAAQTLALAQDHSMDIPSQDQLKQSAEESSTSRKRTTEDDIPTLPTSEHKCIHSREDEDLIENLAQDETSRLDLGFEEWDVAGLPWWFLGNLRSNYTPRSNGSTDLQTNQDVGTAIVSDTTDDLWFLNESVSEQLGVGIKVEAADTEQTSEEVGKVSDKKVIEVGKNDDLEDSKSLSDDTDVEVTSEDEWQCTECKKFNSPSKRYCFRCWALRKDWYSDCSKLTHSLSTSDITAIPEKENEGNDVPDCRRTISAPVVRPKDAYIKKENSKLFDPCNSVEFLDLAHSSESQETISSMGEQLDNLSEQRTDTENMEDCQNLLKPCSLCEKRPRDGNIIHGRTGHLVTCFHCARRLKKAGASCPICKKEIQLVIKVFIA

[4] = Antiproliferative activity against human HCT116-p53-null cells overexpressing MDMX assessed as cell growth inhibition incubated for 72 hrs by CCK-8 assay; assay type: functional, cell-based
SJSA-1 = assay: Antiproliferative activity against human SJSA-1 cells overexpressing MDM2 assessed as cell growth inhibition incubated for 72 hrs by CCK-8 assay; assay type: functional, cell-based; details: SJSA-1, 72 h
HCT-116 [5] = assay: Antiproliferative activity against human HCT-116 cells overexpressing MDM2 assessed as cell growth inhibition incubated at 10 uM for 72 hrs by CCK-8 assay relative to control; assay type: functional
SH-SY5Y [6] = assay: Antiproliferative activity against human SH-SY5Y cells overexpressing MDMX assessed as cell growth inhibition incubated at 10 uM for 72 hrs by CCK-8 assay relative to control; assay type: functional
HCT-116 [7] = assay: Inhibition of colony formation in human HCT-116 cells incubated at 0.6 uM for 8 to 15 days measured by crystal violet staining based microscopic analysis; assay type: functional, cell-based; details: time 8-15 day
SH-SY5Y [8] = assay: Inhibition of colony formation in human SH-SY5Y cells incubated at 0.6 uM for 8 to 15 days measured by crystal violet staining based microscopic analysis; assay type: functional, cell-based; details: time 8-15 day
[9] = Cytotoxicity against human BEAS-2B cells incubated for 72 hrs by CCK-8 assay; assay type: toxicity, cell-based
[10] = Cytotoxicity against human LO2 cells incubated for 72 hrs by CCK-8 assay; assay type: toxicity, cell-based, L02
HCT-116 [11] = assay: Inhibition of cell migration in human HCT-116 cells measured using transwell chamber by crystal violet staining based microscopic analysis; assay type: functional; details: dose 0.2-0.6 µM
SH-SY5Y [12] = assay: Inhibition of cell migration in human SH-SY5Y cells measured using transwell chamber by crystal violet staining based microscopic analysis; assay type: functional; details: dose 0.2-0.6 µM
HCT-116 [13] = assay: Inhibition of cell invasion in human HCT-116 cells measured using transwell chamber by crystal violet staining based microscopic analysis; assay type: functional; details: dose 0.2-0.6 µM
SH-SY5Y [14] = assay: Inhibition of cell invasion in human SH-SY5Y cells measured using transwell chamber by crystal violet staining based microscopic analysis; assay type: functional; details: dose 0.2-0.6 µM
SH-SY5Y [15] = assay: Induction of apoptosis in human SH-SY5Y cells assessed as apoptotic cells at 0.6 uM for 48 hrs measured by Annexin V-PI based flow cytometric analysis relative to control; assay type: functional
HCT-116 [16] = assay: Reactivation of p53 pathway in human HCT-116 cells assessed as increase in p53 level treated at 0.6 to 2.4 uM for 48 hrs measured by Western blotting analysis; assay type: cell-based; details: dose 0.6-2.4 µM
[17] = molecular target: Cellular tumor antigen p53 (Homo sapiens) (UniProt P04637); assay: Reactivation of p53 pathway in human HCT-116 cells assessed as increase in MDM2 level treated at 0.6 to 2.4 uM for 48 hrs measured by Western blotting analysis; assay type: cell-based; details: dose 0.6-2.4 µM
Cellular tumor antigen p53 (Homo sapiens), sequence (P04637 whole entry, looked up): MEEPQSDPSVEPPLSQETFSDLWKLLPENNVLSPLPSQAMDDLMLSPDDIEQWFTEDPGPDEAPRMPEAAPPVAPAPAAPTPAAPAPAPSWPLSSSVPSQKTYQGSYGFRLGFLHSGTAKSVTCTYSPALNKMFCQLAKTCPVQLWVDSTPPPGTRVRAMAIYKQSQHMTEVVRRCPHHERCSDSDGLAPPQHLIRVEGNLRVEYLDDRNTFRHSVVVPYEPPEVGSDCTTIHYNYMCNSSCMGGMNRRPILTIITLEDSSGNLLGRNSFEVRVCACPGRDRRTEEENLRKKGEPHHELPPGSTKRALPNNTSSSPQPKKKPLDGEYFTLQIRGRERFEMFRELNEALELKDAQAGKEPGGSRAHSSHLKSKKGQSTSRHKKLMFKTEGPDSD

[18] = molecular target: Cellular tumor antigen p53 (Homo sapiens) (UniProt P04637); assay: Reactivation of p53 pathway in human HCT-116 cells assessed as increase in MDMX level treated at 0.6 to 2.4 uM for 48 hrs measured by Western blotting analysis; assay type: cell-based; details: dose 0.6-2.4 µM
[19] = molecular target: Cellular tumor antigen p53 (Homo sapiens) (UniProt P04637); assay: Reactivation of p53 pathway in human HCT-116 cells assessed as increase in p21 level treated at 0.6 to 2.4 uM for 48 hrs measured by Western blotting analysis; assay type: cell-based; details: dose 0.6-2.4 µM
HCT-116 [20] = assay: Reactivation of p53 pathway in human HCT-116 cells assessed as increase in cleaved caspase 3 level treated at 0.6 to 2.4 uM for 48 hrs measured by Western blotting analysis; assay type: cell-based; details: dose 0.6-2.4 µM
SH-SY5Y [21] = assay: Reactivation of p53 pathway in human SH-SY5Y cells assessed as increase in p53 level treated at 0.6 to 2.4 uM for 48 hrs measured by Western blotting analysis; assay type: cell-based; details: dose 0.6-2.4 µM
SH-SY5Y [22] = assay: Reactivation of p53 pathway in human SH-SY5Y cells assessed as increase in MDM2 level treated at 0.6 to 2.4 uM for 48 hrs measured by Western blotting analysis; assay type: cell-based; details: dose 0.6-2.4 µM
SH-SY5Y [23] = assay: Reactivation of p53 pathway in human SH-SY5Y cells assessed as increase in MDMX level treated at 0.6 to 2.4 uM for 48 hrs measured by Western blotting analysis; assay type: cell-based; details: dose 0.6-2.4 µM
SH-SY5Y [24] = assay: Reactivation of p53 pathway in human SH-SY5Y cells assessed as increase in p21 level treated at 0.6 to 2.4 uM for 48 hrs measured by Western blotting analysis; assay type: cell-based; details: dose 0.6-2.4 µM
SH-SY5Y [25] = assay: Reactivation of p53 pathway in human SH-SY5Y cells assessed as increase in cleaved caspase 3level treated at 0.6 to 2.4 uM for 48 hrs measured by Western blotting analysis; assay type: cell-based; details: dose 0.6-2.4 µM
[26] = molecular target: Tumour suppressor p53/oncoprotein Mdm2 (Homo sapiens) (UniProt P04637+Q00987); assay: Inhibition of protein binding in p53/MDM2 in human HCT116 cells assessed as disruption of protein-protein interaction measured at 1.2 uM for 48 hrs by co-immunoprecipitation based Western blotting analysis; assay type: cell-based; details: HCT-116
Tumour suppressor p53/oncoprotein Mdm2 (Homo sapiens), sequence (P04637 whole entry, looked up): as above
Tumour suppressor p53/oncoprotein Mdm2 (Homo sapiens), sequence (Q00987 whole entry, looked up): as the sequence (Q00987 whole entry, the tested form may be a part) above

HCT-116 [27] = assay: Induction of apoptosis in human HCT-116 cells assessed as apoptotic cells at 0.6 uM for 48 hrs measured by Annexin V-PI based flow cytometric analysis relative to control; assay type: functional
HCT-116 [28] = assay: Induction of apoptosis in human HCT-116 cells assessed as apoptotic cells at 2.4 uM for 48 hrs measured by Annexin V-PI based flow cytometric analysis relative to control; assay type: functional
SH-SY5Y [29] = assay: Induction of apoptosis in human SH-SY5Y cells assessed as apoptotic cells at 2.4 uM for 48 hrs measured by Annexin V-PI based flow cytometric analysis relative to control; assay type: functional
HCT-116 [30] = assay: Induction of cell cycle arrest in human HCT-116 cells assessed as increase in accumulation of cells at G1 phase incubated at 0.6 to 2.4 uM for 48 hrs by measured by flow cytometric analysis; assay type: functional, cell-based; details: dose 0.6-2.4 µM
HCT-116 [31] = assay: Induction of cell cycle arrest in human HCT-116 cells assessed as decrease in accumulation of cells at G2 phase incubated at 0.6 to 2.4 uM for 48 hrs by measured by flow cytometric analysis; assay type: functional, cell-based; details: dose 0.6-2.4 µM
SH-SY5Y [32] = assay: Induction of cell cycle arrest in human SH-SY5Y cells assessed as increase in accumulation of cells at G1 phase incubated at 0.6 to 2.4 uM for 48 hrs by measured by flow cytometric analysis; assay type: functional, cell-based; details: dose 0.6-2.4 µM
SH-SY5Y [33] = assay: Induction of cell cycle arrest in human SH-SY5Y cells assessed as decrease in accumulation of cells at G2 phase incubated at 0.6 to 2.4 uM for 48 hrs by measured by flow cytometric analysis; assay type: functional, cell-based; details: dose 0.6-2.4 µM

## CCN1CCN(C(=O)CCC(=O)N(c2ccc(Cl)cc2)C(C(=O)c2ccc(Cl)cc2)c2ccc(F)cc2Cl)CC1 (centres undefined)
[1]
  Ki: 0.69 µM
HCT-116 [2]
  IC50: 6.24 µM
SH-SY5Y [3]
  IC50: 5.82 µM
Protein Mdm4
  Ki: 9.37 µM
[4]
  IC50: 20.9 µM
SJSA-1
  IC50: 5.93 µM

## O=C(c1ccc(Cl)cc1)C(c1ccc(F)cc1Cl)N(C(=O)CCC(=O)N1CCN(CCO)CC1)c1ccc(Cl)cc1 (centres undefined)
[1]
  Ki: 0.48 µM
HCT-116 [2]
  IC50: 3.97 µM
SH-SY5Y [3]
  IC50: 4.42 µM
Protein Mdm4
  Ki: 11.6 µM
[4]
  IC50: 15.6 µM
SJSA-1
  IC50: 4.36 µM

## COc1ccc(C2=N[C@H](c3ccc(Cl)cc3)[C@H](c3ccc(Cl)cc3)N2C(=O)N2CCNC(=O)C2)c(OC(C)C)c1
HCT-116 [5]
  inhibition at 10 µM: 49.2%
SH-SY5Y [6]
  inhibition at 10 µM: 46.5%
HCT-116 [2]
  IC50: 11.3 µM
[4]
  IC50: 29.5 µM
HCT-116 [7]
  inhibition: Active
SH-SY5Y [8]
  inhibition: Active

## O=C(O)c1ccc(C(=O)N(c2ccc(Cl)cc2)C(C(=O)c2ccc(Cl)cc2)c2ccc(F)cc2Cl)cc1 (centres undefined)
[1]
  Ki: 0.32 µM
HCT-116 [2]
  IC50: 2.26 µM
SH-SY5Y [3]
  IC50: 1.03 µM
Protein Mdm4
  Ki: 4.22 µM
[4]
  IC50: 16.8 µM
SJSA-1
  IC50: 1.95 µM

## O=C(c1ccc(Cl)cc1)C(c1ccc(F)cc1Cl)N(C(=O)CCC(=O)N1CCNCC1)c1ccc(Cl)cc1 (centres undefined)
[1]
  Ki: 0.23 µM
HCT-116 [2]
  IC50: 0.68 µM
SH-SY5Y [3]
  IC50: 0.54 µM
Protein Mdm4
  Ki: 2.45 µM
[4]
  IC50: 14 µM
SJSA-1
  IC50: 0.58 µM
[9]
  IC50 at 72 h: 18 µM
[10]
  IC50 at 72 h: 15.9 µM
HCT-116 [7]
  inhibition: Active
SH-SY5Y [8]
  inhibition: Active
HCT-116 [11]
  inhibition: Dose-Dependent Effect
SH-SY5Y [12]
  inhibition: Dose-Dependent Effect
HCT-116 [13]
  inhibition: Dose-Dependent Effect
SH-SY5Y [14]
  inhibition: Dose-Dependent Effect
SH-SY5Y [15]
  Activity: 15.69%
HCT-116 [16]
  Activity: Active
[17]
  Activity: Active
[18]
  Activity: Active
[19]
  Activity: Active
HCT-116 [20]
  Activity: Active
SH-SY5Y [21]
  Activity: Active
SH-SY5Y [22]
  Activity: Active
SH-SY5Y [23]
  Activity: Active
SH-SY5Y [24]
  Activity: Active
SH-SY5Y [25]
  Activity: Active
[26]
  inhibition: Active
HCT-116 [27]
  Activity: 13.63%
HCT-116 [28]
  Activity: 37.6%
SH-SY5Y [29]
  Activity: 40.8%
HCT-116 [30]
  Activity: Active
HCT-116 [31]
  Activity: Active
SH-SY5Y [32]
  Activity: Active
SH-SY5Y [33]
  Activity: Active

## CCOc1cc(/C=C2\C(=O)N(c3ccccc3)N=C2C)cc(Cl)c1OCC(=O)OC
SH-SY5Y [3]
  IC50: 12.9 µM
Protein Mdm4
  Ki: 0.78 µM
